According to patent US20070167431A1, “Method for the treatment of cognitive dysfunction” (Wyeth, priority 2006, published 2007):
Entries after “also recorded” stand apart in the source; their conditions may differ. Read-outs that look alike come from different tables or passages of the source.

Columns and labels:
[1] = target: T1, human cloned 5-HT6 receptors (Homo sapiens, UniProt P50406); assay: 5-HT6 binding affinity, [3H]-LSD displacement on membranes of Hela cells
T1 construct: expressed in transfected cells; host or cells: Hela cells (membrane preparation)
Method: The affinity of test compounds for the serotonin 5-HT6 receptor is evaluated in the following manner. Cultured Hela cells expressing human cloned 5-HT6 receptors are harvested and centrifuged at low speed (1,000×g) for 10.0 min to remove the culture media. The harvested cells are suspended in half volume of fresh physiological phosphate buffered saline solution and recentrifuged at the same speed. This operation is repeated. The collected cells are then homogenized in ten volumes of 50 mM Tris.HCl (pH 7.4) and 0.5 mM EDTA. The homogenate is centrifuged at 40,000×g for 30.0 min and the precipitate is collected. The obtained pellet is resuspended in 10 volumes of Tris.HCl buffer and recentrifuged at the same speed. The final pellet is suspended in a small volume of Tris.HCl buffer and the tissue protein content is determined in aliquots of 10-25 μl volumes. […] The volume of the suspended cell membranes is adjusted to give a tissue protein concentration of 1.0 mg/ml of suspension. The prepared membrane suspension (10 times concentrated) is aliquoted in 1.0 ml volumes and stored at −70° C. until used in subsequent binding experiments.
Binding experiments are performed in a 96 well microtiter plate format, in a total volume of 200 μl. […] The test compounds are added in 20.0 μl volume.
The bound complex caught on the filter disk is allowed to air dry and the radioactivity is measured in a Packard TopCount® equipped with six photomultiplier detectors, after the addition of 40.0 μl Microscint®-20 scintillant to each shallow well.
Binding in the presence of varying concentrations of test compound is expressed as a percentage of specific binding in the absence of test compound. The results are plotted as log % bound versus log concentration of test compound. […] A linear regression line of data points is plotted, from which the IC50 value is determined and the Ki value is determined based upon the following equation: […]
where L is the concentration of the radioactive ligand used and KD is the dissociation constant of the ligand for the receptor, both expressed in nM.

recognition memory = type: in vivo; settings: 48-hour interval
Description: In this evaluation, donepezil (Aricept) is used as the acetylcholinesterase inhibitor component and 3-(1-naphthylsulfonyl)-5-piperazin-1-yl-1H-indazole (Test Compound A) is used as the 5-HT6 component. Novel object recognition is a single trial non-aversive learning paradigm that utilizes the rodent's natural tendency to explore an unfamiliar object more than a familiar one. The learning phase of the paradigm consists of recording the amount of time a rat explores two identical objects it has never seen before during a 5-minute period. Following a 48-hour interval, during which the animal is returned to its homecage, the animal is placed back into the same environment now containing one of the original objects (familiar) and one never experienced before (novel). Recognition memory is reflected as an increase in time spent exploring the novel object relative to that spent exploring the familiar one. The amount of time each animal spends exploring the two objects during the memory trial is analyzed using a repeated-measures ANOVA. […] All treatments were administered prior to the first trial either orally (Test Compound A) or i.p. (Aricept).

[2] = target: T2, human 5-HT6 receptor stabily transfected into HELA cells (Homo sapiens, UniProt P50406); assay: 5-HT6 antagonist activity using cAMP accumulation; type: cell-based; settings: decrease of cAMP relative to serotonin (100 nM); 100% Imax indicates 0% intrinsic activity
T2 construct: expressed in transfected cells; host or cells: HELA cells, stably transfected
Method: Intracellular cAMP levels are measured using 96-well plates containing the human 5-HT6 receptor stabily transfected into HELA cells. Upon initiation of the assay, the media from cell maintenance is aspirated and cells are preincubated at 37° C. for 15 mins. in KREBS buffer. Following this primary incubation, the buffer is aspirated and an additional incubation is performed at 37° C. for 5 mins. in KREBS buffer containing 500 uM IBMX (3-isobutyl-1-methylxanthine). Subsequently cells are incubated with test compound concentrations ranging from 10^-5 to 10^-10M for 10 minutes at 37° C. Serotonin (100 nM) is added to the treated cells and incubated for an additional 10 minutes at 37° C. The assay is terminated by the addition of 0.5M perchloric acid. Intracellular CAMP levels are determined by radioimmunoassay through the cAMP SPA screening kit. Data are analyzed graphically with GraphPad Prism (GraphPad Software, San Diego, Calif.). […] The value is recorded as Imax (%) and shown on Table I. (100% Imax indicates 0% intrinsic activity.)

[3] = tested on: acetylcholine release in dorsal hippocampus; assay: Acetylcholine release in rat dorsal hippocampus, microdialysis; type: in vivo, Sprague Dawley rats; settings: rat dorsal hippocampus dialysate
Description: Male Sprague Dawley rats were anesthetized with halothane and secured in a stereotaxic frame to allow implantation of a microdialysis guide cannula above the dorsal hippocampus (coordinatesXXX; Paxinos & Watson 1986). The guide cannula was secured using dental acrylic and two small skull screws. Following surgery, animals were individually housed in microdialysis cages with free access to food and water. The following day a microdialysis probe was inserted via the guide cannula into the hippocampus. Probes were perfused with artificial cerebrospinal fluid at a flow rate of 0.5 μl/min. Dialysates were collected every 40 min and were put on dry ice immediately after collection for subsequent analysis. A 3 h stabilization period was allowed following probe insertion after which time baseline samples were collected for 120 min. Rats were then dosed with Aricept (0.5 mg/kg i.p.) or vehicle (saline, 1 ml/kg i.p.). […] Following dosing, dialysis samples were collected for 200 min. At the end of the experiment, animals were euthanized and probe placement was verified histologically. Data from animals with incorrect probe placement were discarded. Dialysates were analyzed for ACh content using LC/MS/MS.

[4] = 5-HT6 antagonist 1 mg/kg po alone

T2 sequence (P50406 whole entry): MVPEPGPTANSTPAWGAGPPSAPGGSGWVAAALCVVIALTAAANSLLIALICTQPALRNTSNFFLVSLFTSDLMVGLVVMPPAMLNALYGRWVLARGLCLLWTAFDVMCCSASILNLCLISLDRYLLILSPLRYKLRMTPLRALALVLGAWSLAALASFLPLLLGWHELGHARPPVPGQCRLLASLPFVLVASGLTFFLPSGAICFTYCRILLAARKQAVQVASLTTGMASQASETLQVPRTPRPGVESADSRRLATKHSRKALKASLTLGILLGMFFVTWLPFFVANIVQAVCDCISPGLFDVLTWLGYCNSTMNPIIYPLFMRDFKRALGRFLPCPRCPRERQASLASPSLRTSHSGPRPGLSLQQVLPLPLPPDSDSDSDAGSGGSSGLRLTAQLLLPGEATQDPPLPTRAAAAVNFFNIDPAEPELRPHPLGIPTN
T1 sequence (P50406 whole entry): as above

O=S(=O)(c1cccc2ccccc12)c1n[nH]c2ccc(N3CCNCC3)cc12 [Test Compound A, 3-(1-naphthylsulfonyl)-5-piperazin-1-yl-1H-indazole]
Ki [1]: 1.1 nM
retention for the familiar objects (novel object recognition) (recognition memory; [4]): neither Aricept (0.5 mg/kg, ip) nor Test Compound A (1 mg/kg, po) alone enhanced retention
retention for the familiar objects (novel object recognition) (recognition memory; 5-HT6 antagonist 3 mg/kg po alone): enhanced retention for the familiar objects
% Imax [2]: 100%

NCCOc1cccc2c(S(=O)(=O)c3cccc4ccccc34)n[nH]c12 [Test Compound C, (2-{[3-(1-naphthylsulfonyl)-1H-indazol-7-yl]oxy}ethyl)amine]
Ki [1]: 1.9 nM
% Imax [2]: 100%

COc1cc2c(cc1OC)C(=O)C(CC1CCN(Cc3ccccc3)CC1)C2 (centres unmarked) [Aricept, donepezil]
retention for the familiar objects (novel object recognition) (recognition memory; Aricept 0.5 mg/kg ip alone): neither Aricept (0.5 mg/kg, ip) nor Test Compound A (1 mg/kg, po) alone enhanced retention; also recorded: produced no enhancement of recognition memory; also recorded: neither Aricept (0.5 mg/kg, ip) alone nor Test Compound B (1 mg/kg, po) alone enhanced retention
retention for the familiar objects (novel object recognition) (recognition memory; Aricept alone): enhanced retention for the familiar objects
increase in acetylcholine concentration (change from baseline) ([3]; Aricept 0.5 mg/kg i.p. alone): 50%

CN(C)CCCOc1ccc2[nH]nc(S(=O)(=O)c3cccc4ccccc34)c2c1 [Test Compound B, N,N-dimethyl-3-{[3-(1-naphthylsulfonyl)-1H-indazol-5-yl]oxy}propan-1-amine]
retention for the familiar objects (novel object recognition) (recognition memory; [4]): neither Aricept (0.5 mg/kg, ip) alone nor Test Compound B (1 mg/kg, po) alone enhanced retention; also recorded: neither Razadyne (0.1 mg/kg, ip) alone nor Test Compound B (1 mg/kg, po) alone enhanced retention
effect on acetylcholine concentration (change from baseline) ([3]; Test Compound B 1 mg/kg p.o. alone): did not affect acetylcholine

COc1ccc2c3c1O[C@H]1C[C@@H](O)C=C[C@@]31CCN(C)C2 [Razadyne, galanthamine]
retention for the familiar objects (novel object recognition) (recognition memory; Razadyne 0. alone): neither Razadyne (0.1 mg/kg, ip) alone nor Test Compound B (1 mg/kg, po) alone enhanced retention

O=S(=O)(c1ccccc1)n1ncc2c(N3CCNCC3)cccc21 [Test Compound D, 1-(phenylsulfonyl)-4-(1-piperazinyl)-1H-indazole]
Ki [1]: 0.6 nM
% Imax [2]: 100%
